Data reported in ChEMBL document CHEMBL5518228, “DNA Interaction and Cleavage Modes of Anthraquinone-Fused Enediynes: A Study on Tiancimycins, Yangpumicins, and Their Semisynthetic Analogues” (J Med Chem, 2024).
Activity calls are given as the source filed them. No cut-off for these calls is given here.

Experiments:
[1] = system: Supercoiled DNA; assay: Induction of supercoiled pBR322 DNA (unknown origin) cleavage at 100 nM incubated for 1 hr in presence of NADPH by agarose gel electrophoresis analysis; format: nucleic-acid assay
[2] = system: Jurkat; assay: Cytotoxicity against human Jurkat cells incubated for 72 hrs by CCK-8 assay; format: functional, cell-based
[3] = system: Supercoiled DNA; assay: Induction of supercoiled pBR322 DNA (unknown origin) cleavage at 100 nM incubated for 1 hr in presence of bleomycin by agarose gel electrophoresis analysis; format: nucleic-acid assay
[4] = Toxicity in BALB/c mouse xenografted with human KPL-4 cells assessed as body weight loss at 0.05 mg/kg,iv administrated once per week for 2 weeks; format: organism-based; conditions: in vivo, 336 h
[5] = system: Supercoiled DNA; assay: Induction of supercoiled pBR322 DNA (unknown origin) cleavage at 100 nM incubated for 1 hr in presence of actinomycin D by agarose gel electrophoresis analysis; format: nucleic-acid assay
[6] = system: Supercoiled DNA; assay: Induction of supercoiled pBR322 DNA (unknown origin) cleavage at 100 nM incubated for 1 hr in presence of adriamycin by agarose gel electrophoresis analysis; format: nucleic-acid assay
[7] = system: Caco-2; assay: Cytotoxicity against human Caco-2 cells incubated for 72 hrs by CCK-8 assay; format: functional, cell-based; conditions: Caco-2, 72 h
[8] = system: Supercoiled DNA; assay: Induction of supercoiled pBR322 DNA (unknown origin) cleavage at 0.5 uM incubated for 1 hr in presence of pyridine under pH 7.4 condition by agarose gel electrophoresis analysis; format: nucleic-acid assay
[9] = Cytotoxicity against human HUVEC cells incubated for 72 hrs by CCK-8 assay; format: toxicity, cell-based
[10] = system: Supercoiled DNA; assay: Induction of supercoiled pBR322 DNA (unknown origin) cleavage at 100 nM incubated for 1 hr in presence of 10 uM of actinomycin D by agarose gel electrophoresis analysis; format: nucleic-acid assay
[11] = system: Calf thymus DNA; assay: Binding affinity to calf thymus DNA assessed as DNA insertion by measuring change in gibbs free energy in presence of triggered form of compound by fluorescence spectroscopic analysis; format: nucleic-acid assay; conditions: Bos taurus
[12] = system: Supercoiled DNA; assay: Induction of supercoiled pBR322 DNA (unknown origin) cleavage at 100 nM incubated for 1 hr in presence of 10 uM of adriamycin by agarose gel electrophoresis analysis; format: nucleic-acid assay
[13] = system: Supercoiled DNA; assay: Induction of supercoiled pBR322 DNA (unknown origin) cleavage at 100 nM incubated for 1 hr in presence of bleomycin and ferrous ion by agarose gel electrophoresis analysis; format: nucleic-acid assay
[14] = system: Calf thymus DNA; assay: Binding affinity to calf thymus DNA assessed as change in gibbs free energy in presence of ethidium bromide by competitive binding based fluorescence spectroscopic analysis; format: nucleic-acid assay; conditions: Bos taurus
[15] = system: Supercoiled DNA; assay: Induction of supercoiled pBR322 DNA (unknown origin) cleavage at 0.5 uM incubated for 1 hr under pH 5.5 to 9.5 condition by agarose gel electrophoresis analysis; format: nucleic-acid assay
[16] = system: Supercoiled DNA; assay: Induction of supercoiled pBR322 DNA (unknown origin) cleavage assessed as relaxation of supercoiled plasmid incubated for 1 hr in presence of DTT by SYBR I Green staining based agarose gel electrophoresis analysis; format: nucleic-acid assay
[17] = system: Supercoiled DNA; assay: Induction of supercoiled pBR322 DNA (unknown origin) cleavage at 100 nM incubated for 1 hr in presence of DTT by agarose gel electrophoresis analysis; format: nucleic-acid assay
[18] = system: DNA; assay: Induction of duplex DNA (unknown origin) cleavage assessed as DNA cleaved fragments at AT-rich region at 100 uM incubated for 6 hr in presence of DTT by agarose gel electrophoresis analysis; format: nucleic-acid assay
[19] = system: Supercoiled DNA; assay: Induction of supercoiled pBR322 DNA (unknown origin) cleavage at 0.5 uM incubated for 1 hr in presence of mannitol under pH 7.4 condition by agarose gel electrophoresis analysis; format: nucleic-acid assay
[20] = Cytotoxicity against human NCM460 cells incubated for 72 hrs by CCK-8 assay; format: toxicity, cell-based
[21] = system: Supercoiled DNA; assay: Induction of supercoiled pBR322 DNA (unknown origin) cleavage at 0.5 uM incubated for 1 hr in presence of catalase under pH 7.4 condition by agarose gel electrophoresis analysis; format: nucleic-acid assay
[22] = system: Calf thymus DNA; assay: Binding affinity to calf thymus DNA assessed as DNA insertion by measuring change in gibbs free energy by fluorescence spectroscopic analysis; format: nucleic-acid assay; conditions: Bos taurus
[23] = system: Supercoiled DNA; assay: Induction of supercoiled pBR322 DNA (unknown origin) cleavage at 0.5 uM incubated for 1 hr in presence of ethanol under pH 7.4 condition by agarose gel electrophoresis analysis; format: nucleic-acid assay
[24] = system: A549; assay: Cytotoxicity against human A549 cells incubated for 72 hrs by CCK-8 assay; format: functional, cell-based; conditions: A549, 72 h
[25] = system: Supercoiled DNA; assay: Induction of supercoiled pBR322 DNA (unknown origin) cleavage at 0.5 uM incubated for 1 hr in presence of methanol under pH 7.4 condition by agarose gel electrophoresis analysis; format: nucleic-acid assay
[26] = Cytotoxicity against human KPL-4 cells incubated for 72 hrs by CCK-8 assay; format: functional, cell-based; conditions: KPL4, 72 h
[27] = system: Supercoiled DNA; assay: Induction of supercoiled pBR322 DNA (unknown origin) cleavage at 50 uM incubated for 1 hr in presence of adriamycin by agarose gel electrophoresis analysis; format: nucleic-acid assay
[28] = system: Supercoiled DNA; assay: Induction of supercoiled pBR322 DNA (unknown origin) cleavage at 50 uM incubated for 1 hr in presence of pyridine under pH 7.4 condition by agarose gel electrophoresis analysis; format: nucleic-acid assay
[29] = Toxicity in BALB/c mouse xenografted with human KPL-4 cells assessed as pathological damage in lung at 0.2 mg/kg,iv administrated once per week for 2 weeks by H and E staining based analysis; format: organism-based; conditions: in vivo, 336 h
[30] = Toxicity in BALB/c mouse xenografted with human KPL-4 cells assessed as pathological damage in heart at 0.2 mg/kg,iv administrated once per week for 2 weeks by H and E staining based analysis; format: organism-based; conditions: in vivo, 336 h
[31] = system: Supercoiled DNA; assay: Induction of supercoiled pBR322 DNA (unknown origin) cleavage at 50 uM incubated for 1 hr in presence of NADPH by agarose gel electrophoresis analysis; format: nucleic-acid assay
[32] = system: Supercoiled DNA; assay: Induction of supercoiled pBR322 DNA (unknown origin) cleavage at 50 uM incubated for 1 hr under pH 5.5 to 6.5 condition by agarose gel electrophoresis analysis; format: nucleic-acid assay
[33] = Toxicity in BALB/c mouse xenografted with human KPL-4 cells assessed as pathological damage in liver at 0.05 mg/kg,iv administrated once per week for 2 weeks by H and E staining based analysis; format: organism-based; conditions: in vivo, 336 h
[34] = system: Supercoiled DNA; assay: Induction of supercoiled pBR322 DNA (unknown origin) cleavage at 50 uM incubated for 1 hr in presence of actinomycin D by agarose gel electrophoresis analysis; format: nucleic-acid assay
[35] = system: Supercoiled DNA; assay: Induction of supercoiled pBR322 DNA (unknown origin) cleavage at 50 uM incubated for 1 hr in presence of DTT under pH 7.4 condition by agarose gel electrophoresis analysis; format: nucleic-acid assay
[36] = system: Supercoiled DNA; assay: Induction of supercoiled pBR322 DNA (unknown origin) cleavage at 50 uM incubated for 1 hr in presence of bleomycin by agarose gel electrophoresis analysis; format: nucleic-acid assay
[37] = system: Supercoiled DNA; assay: Induction of supercoiled pBR322 DNA (unknown origin) cleavage at 50 uM incubated for 1 hr in presence of DTT by agarose gel electrophoresis analysis; format: nucleic-acid assay
[38] = Toxicity in BALB/c mouse xenografted with human KPL-4 cells assessed as pathological damage in spleen at 0.05 mg/kg,iv administrated once per week for 2 weeks by H and E staining based analysis; format: organism-based; conditions: in vivo, 336 h
[39] = system: KPL-4; assay: Antitumor activity against human KPL-4 cells xenografted with BALB/c mouse assessed as reduction in tumor mass at 0.05 mg/kg,iv administrated once per week for 2 weeks; format: functional, organism-based
[40] = system: Supercoiled DNA; assay: Induction of supercoiled pBR322 DNA (unknown origin) cleavage at 50 uM incubated for 1 hr in presence of bleomycin and ferrous ion by agarose gel electrophoresis analysis; format: nucleic-acid assay
[41] = Toxicity in BALB/c mouse xenografted with human KPL-4 cells assessed as body weight loss at 0.2 mg/kg,iv administrated once per week for 2 weeks; format: organism-based; conditions: in vivo, 336 h
[42] = Toxicity in BALB/c mouse xenografted with human KPL-4 cells assessed as pathological damage in heart at 0.05 mg/kg,iv administrated once per week for 2 weeks by H and E staining based analysis; format: organism-based; conditions: in vivo, 336 h
[43] = system: DNA; assay: Induction of duplex DNA (unknown origin) cleavage assessed as DNA cleaved fragments at AT-rich region at 1 mM incubated for 6 hr in presence of DTT by agarose gel electrophoresis analysis; format: nucleic-acid assay
[44] = Toxicity in BALB/c mouse xenografted with human KPL-4 cells assessed as pathological damage in lung at 0.05 mg/kg,iv administrated once per week for 2 weeks by H and E staining based analysis; format: organism-based; conditions: in vivo, 336 h
[45] = Toxicity in BALB/c mouse xenografted with human KPL-4 cells assessed as pathological damage in liver at 0.2 mg/kg,iv administrated once per week for 2 weeks by H and E staining based analysis; format: organism-based; conditions: in vivo, 336 h
[46] = system: Supercoiled DNA; assay: Induction of supercoiled pBR322 DNA (unknown origin) cleavage at 50 uM incubated for 1 hr under pH 5.5 to 9.5 condition by agarose gel electrophoresis analysis; format: nucleic-acid assay
[47] = Toxicity in BALB/c mouse xenografted with human KPL-4 cells assessed as pathological damage in spleen at 0.2 mg/kg,iv administrated once per week for 2 weeks by H and E staining based analysis; format: organism-based; conditions: in vivo, 336 h
[48] = system: KPL-4; assay: Antitumor activity against human KPL-4 cells xenografted with BALB/c mouse assessed as reduction in tumor mass at 0.2 mg/kg,iv administrated once per week for 2 weeks; format: functional, organism-based
[49] = system: Supercoiled DNA; assay: Induction of supercoiled pBR322 DNA (unknown origin) cleavage at 50 uM incubated for 1 hr in presence of GSH by agarose gel electrophoresis analysis; format: nucleic-acid assay
[50] = system: Supercoiled DNA; assay: Induction of supercoiled pBR322 DNA (unknown origin) cleavage at 50 uM incubated for 1 hr in presence of catalase under pH 7.4 condition by agarose gel electrophoresis analysis; format: nucleic-acid assay
[51] = Toxicity in BALB/c mouse xenografted with human KPL-4 cells assessed as pathological damage in kidney at 0.05 mg/kg,iv administrated once per week for 2 weeks by H and E staining based analysis; format: organism-based; conditions: in vivo, 336 h
[52] = Toxicity in BALB/c mouse xenografted with human KPL-4 cells assessed as pathological damage in kidney at 0.2 mg/kg,iv administrated once per week for 2 weeks by H and E staining based analysis; format: organism-based; conditions: in vivo, 336 h

## COc1ccc2c(c1O)C(=O)c1c3c(cc(O)c1C2=O)[C@@]12O[C@@]1([C@@H](C)O)[C@H](C#C/C=C\C#C[C@H]2O)N3
[1]
  Activity: inactive
[2]
  IC50: 0.05 nM
[3]
  Activity: Active
[4]
  Activity: Toxic
[5]
  Activity: inactive
[6]
  Activity: inactive
[7]
  IC50: 0.4 nM
[8]
  Activity: Active
[9]
  IC50 at 72 h: 0.2 nM
[10]
  Activity: inactive
[11]
  deltaG: -17.8 kcal/mol
[12]
  Activity: inactive
[13]
  Activity: Active
[14]
  deltaG: -8.26 kcal/mol
[15]
  Activity: Active
[16]
  EC50: 38.9 nM
[17]
  Activity: Active
[18]
  Activity: Active
[19]
  Activity: Active
[20]
  IC50 at 72 h: 0.2 nM
[21]
  Activity: Active
[22]
  deltaG: -20.5 kcal/mol
[23]
  Activity: Active
[24]
  IC50: 0.04 nM
[25]
  Activity: Active
[26]
  IC50: 0.02 nM

## COc1ccc2c(c1OC)C(=O)c1c3c(cc(O)c1C2=O)[C@@]12O[C@@]1([C@@H](C)O)[C@H](C#C/C=C\C#C[C@H]2O)N3
[27]
  Activity: inactive
[2]
  IC50: 0.1 nM
[28]
  Activity: inactive
[29]
  Activity: Non-Toxic
[30]
  Activity: Non-Toxic
[7]
  IC50: 37.9 nM
[31]
  Activity: inactive
[32]
  Activity: inactive
[33]
  Activity: Non-Toxic
[9]
  IC50 at 72 h: 6.8 nM
[34]
  Activity: inactive
[35]
  Activity: inactive
[36]
  Activity: Active
[11]
  deltaG: -18.1 kcal/mol
[37]
  Activity: Active
[38]
  Activity: Non-Toxic
[39]
  Activity: Active
[40]
  Activity: Active
[41]
  Activity: Non-Toxic
[42]
  Activity: Non-Toxic
[43]
  Activity: inactive
[44]
  Activity: Non-Toxic
[14]
  deltaG: -7.98 kcal/mol
[16]
  EC50: 17.3 nM
[45]
  Activity: Non-Toxic
[46]
  Activity: Active
[20]
  IC50 at 72 h: 6 nM
[47]
  Activity: Non-Toxic
[48]
  Activity: Active
[22]
  deltaG: -23.8 kcal/mol
[49]
  Activity: inactive
[50]
  Activity: inactive
[24]
  IC50: 1.3 nM
[51]
  Activity: Non-Toxic
[26]
  IC50: 0.1 nM
[52]
  Activity: Non-Toxic
